In US20070078373A1, “PULSATILE DELIVERY OF GONADOTROPIN-RELEASING HORMONE FROM A PRE-LOADED INTEGRATED ELECTROTRANSPORT PATCH” (Vyteris, Inc., priority 2005, published 2007):
Counter-ions that a name gives are not always drawn.

Legend:
[1] = Pulsatile transdermal iontophoresis of GnRH in pigs, plasma PK (Example 1); type: in vivo, Yorkshire pigs; settings: for plasma concentrations: condition #2 (2 mg/mL patch)
Description: (§1) Six prepubescent female Yorkshire pigs were used for this Example. A crossover design was used whereby each animal received both subcutaneous (SC) and iontophoretic treatments. Subcutaneous and iontophoresis experiments were spaced two weeks apart to meet acceptable animal blood draw limits. The subcutaneous injection experiments were performed first in the sequence. During the two week study the animal weights ranged from 15-32 kg.
The animal hair were clipped the night before the experiment. Prior to applying patches, a skin site free of obvious cuts and scrapes was selected. The selected skin site was wiped clean with warm water and an alcohol-loaded gauze pad and patted dry.
Iontophoretic hydrogel patches prepared according to Patch Fabrication Platform I (5 cm^2 active area) were used in these studies. The patches were loaded with GnRH (HCl) solution to provide final concentration of either 10 mg/mL, GnRH (HC 1) or 2 mg/mL GnRH (HCl) in the patch. The pH of the gel surface was from about 5 to about 5.5.
(§2) All animals were placed in a sling under general propofol anesthesia and jugular, ear vein and arterial catheters placed percutaneously. For subcutaneous injection studies, a venous catheter was placed against the lower abdominal wall of the animal and 20 μg of drug was injected at 90-min intervals (total 5 dosing cycles). Each drug injection was followed by saline flush. The subcutaneous injection study in each animal was followed by iontophoresis administration in the same animal two weeks later. The iontophoresis experiments also involved five dosing cycles at 90-minute intervals. The drug loaded patches were placed on the back of the animal just off the midline section.
A laboratory controller was used as a constant current source. The controller is a battery operated electrotransport controller and delivers a preprogrammed current density profile for experimental studies. In addition, the controller measures the voltage across and the current through an electrotransport patch during drug delivery. The accuracy of the delivered current is ±1% of full-scale. The controller has a maximum voltage of 35 V and can take readings once per second for up to an hour. The accuracy of the recorded current is ±1% of full-scale. The accuracy of the recorded voltage is 0.8 V Max. There are no moving parts on the controller. Infrared transmission of the delivery profile and data retrieval to a computer ensures there are no disturbances during the treatment of a subject.
Example 1 utilized a current delivery profile comprising five cycles of eight minute pulses each having a current of 1.2 mA, with rest times of 90 minutes between pulses.
(§3) Blood samples were drawn from the jugular catheter into pre-chilled 3 mL vacutainer tubes using the following protocol. The tubes contained EDTA (1 mg/mL of blood) and Aprotinin (500 KIU/mL, of blood). A 2 mL, flush volume of blood was drawn followed by a 3 mL sample. The blood samples were withdrawn as outlined in Table G below. The tubes were centrifuged within 15 min of blood collection at 1600 rpm for 15 min at 4° C. The separated plasma was split into two (approximately equal volume) 2 mL tubes and frozen on dry ice. Samples were stored at −70° C. until shipment. The samples were analyzed using an I^125 radio labeled immnunoassay.
All experimental animals were allowed to recover from anesthesia after sutaneous treatment. The jugular catheter was left over night and removed after 24 hour blood draw was complete. Immediately following the 24 hour iontophoresis blood draw, animals were euthanized. Animal 1 died seven days after subcutaneous treatment. Animals 2, 3, and 4 received iontophoresis under condition #1 and animals 5 and 6 received iontophoresis under condition #2.

[2] = in vivo; design: species or system Yorkshire pigs; settings: pig, sc
Description: as §1
The subcutaneous dosing solutions of concentration 200 μg/mL and 400 μg/mL, were prepared in pH 5.0 water (pH of maximum stability), Pigs 1 and 2 received 50 μl of 400 μg/mL, solution, while pigs 3-6 received 100 μl of 200 μg/mL, solution for each of the 5 doses.
as §2, §3

[3] = design: species or system Yorkshire pigs; settings: pig, in vivo
Description: Six prepubescent female Yorkshire pigs (numbered from 7-12) were used in this set of studies. Each animal received two iontophoretic treatments. A first set of three animals received 50 mg/mL, drug concentration using five 8-min pulses (condition #3) and a week later received the same concentration using eight 5-min pulses (condition #5). A second set of three animals received 25 mg/mL drug concentration using five 8-min pulses (condition #4) and a week later received the same concentration using eight 5-min pulses (condition #6). The five 8-min pulse experiments were performed first in the sequence. During the span of the study the animal weights ranged from approximately 18-33 kg.
The animals were prepared as described in Example 1. Inotophoretic hydrogel patches prepared according to Patch Fabrication Platform I (5 cm^2 active area) were used in these studies. The patches were loaded with GnRH (HCl) solution to provide final concentration of either 25 mg/mL GnRH (HC l) or 50 mg/mL GnRH (HCl) in the patch. The pH of the gel surface was measured to be 5.0±0.5. The patches were placed on the back of the animal just off the midline section. The controller, as described in Example 1, was used. One patch each was used throughout the entire delivery period for conditions 3-5. For condition #6, the patch was replaced with a fresh patch after pulse 5. The experimental conditions are summarized in Table K. Example 2 utilized current delivery profiles comprising five cycles of eight minute pulses each having a current of 1.2 mA for conditions #3 and #4; and eight cycles of five minute pulses each having a current of 1.2 mA for conditions #5 and #6. Each profile had rest times of 90 minutes between pulses.
Blood samples were drawn from a jugular catheter at times as disclosed in Table L, and treated according to the protocol set forth in Example 1.

[4] = design: species or system Yorkshire pigs; settings: pig, in vivo; remark: listed apart in the source
Description: Three prepubescent female Yorkshire pigs (numbered 13-15) were used in this Example. Each animal received one iontophoretic treatment for eight 90 minute cycles and a ninth cycle with subcutaneous (“SC”) dosing for comparison. The ionotophoretic devices were prepared according to Patch Fabrication Platform I (5 cm^2 active area). The patches were loaded with GnRH (HCl) solution to provide final concentration of 25 mg/mL, GnRH. The pH of the gel surface was measured to be 5.0±0.5. The patches were stored at 5° C. at all times except during travel to the study site. The SC dosing solution used in animal 13 was prepared 4 days before use and stored at room temperature (“RT”). The SC dosing solution used in animal 14 was prepared 6 days before use and stored mainly at RT. The SC dosing solution used in animal 15 was prepared 1 day before use and stored at RT. During the study, the animal weights ranged from approximately 15-30 kg. […] The animals were prepared as described in Example 1. The drug loaded patches were placed on the back of the animal just off the midline section. One patch each was used throughout the eight delivery pulses. The controller, as described in Example 1, was used as a constant current source. Blood samples were drawn from a jugular catheter at times as disclosed in Table P, and treated according to the analytical protocol set forth in Example 1.

[5] = condition #1, animal weight normalized, pulses 1-5

SMILES: CC(C)C[C@H](NC(=O)CNC(=O)[C@H](Cc1ccc(O)cc1)NC(=O)[C@H](CO)NC(=O)[C@H](Cc1c[nH]c2ccccc12)NC(=O)[C@H](Cc1cnc[nH]1)NC(=O)[C@@H]1CCC(=O)N1)C(=O)N[C@@H](CCCNC(=N)N)C(=O)N1CCC[C@H]1C(=O)NCC(N)=O [GnRH, gonadorelin hydrochloride]
- ratio of the mean CV for AUC between iontophoretic and subcutaneous drug delivery ([1]; condition #1, all pulses): 1.9
- ratio of the mean CV for Cmax between iontophoretic and subcutaneous drug delivery ([1]; condition #1, all pulses): 2.0
- Mean coefficient of variation (for AUC) for iontophoretic drug delivery [1, 5]: 35%
- mean CV (for Cmax) for iontophoretic drug delivery [1, 5]: 40%
- mean CV (for AUC) for iontophoretic drug delivery ([1]; condition #1, pulse 1 excluded): 15%
- mean CV (for Cmax) for iontophoretic drug delivery ([1]; condition #1, pulse 1 excluded): 22%
- ratio of the mean CV for AUC between iontophoretic and subcutaneous drug delivery ([1]; condition #1, pulse 1 excluded): 0.83
- ratio of the mean CV for Cmax between iontophoretic and subcutaneous drug delivery ([1]; condition #1, pulse 1 excluded): 1.1
- percent difference between iontophoresis and subcutaneous means, of the subcutaneous AUC ([1]; condition #1 vs subcutaneous 20 μg dose, animal weight normalized): 47%
- percent difference between iontophoresis and subcutaneous Cmax means, of the subcutaneous mean Cmax ([1]; condition #1 vs subcutaneous, animal weight normalized): 32%
- plasma concentrations ([1]; animal 5, first 3 pulses): below assay limit of detection
- plasma concentrations ([1]; animal 6, first pulse): below assay limit of detection
- Mean AUC for pulses 4 and 5, fold less than iontophoresis condition #1 ([1]; condition #2 vs condition #1): 5.6 fold
- Mean Cmax for pulses 4 and 5, fold less than iontophoresis condition #1 ([1]; condition #2 vs condition #1): 4.6 fold
- Tmax ([1]; female, Yorkshire, pig, in vivo, Tmax): 20 min
- AUC ([2]; female, Yorkshire, 20 ug, Subcut. AUC): 0.742 ng·h/mL
- Tmax ([2]; female, Yorkshire, Subcut Tmax): 19 min
- Mean CV (for AUC) for subcutaneous drug delivery ([2]; 20 ug): 18%
- Mean CV (for Cmax) for subcutaneous drug delivery ([2]; 20 ug): 20%
- Mean AUC, less than for 10 mg/mL drug concentration and 8-min pulses (Example 1) [3]: 25%
- Mean Cmax, less than for 10 mg/mL drug concentration and 8-min pulses (Example 1) [3]: 25%
- drug delivery, less compared with 10 mg/mL drug concentration and 8-minute pulses [3]: 25%
- Tmax coefficient of variation over pulses 2-8 [4]: 9%
